Reference: patent publication US9522907B2, “Anticancer agent and process for the preparation thereof” (COUNCIL OF SCIENTIFIC & INDUSTRIAL RESEARCH, priority 2014, dated 2016)

Tests used:
Experiment in all cases: cells
Type in all cases: cell-based
[1] = tested on: Non-small-cell lung cancer cell lines; settings: Homo sapiens; Non-small-cell lung; average of cell lines of the cancer type; read-out: Log10 GI50 mean graph midpoint (MG_MID) (converted)
Text: (§1) The mean graph midpoint values of Log10 GI50 as well as Log10 LC50 for the compounds 2i, 5i and Hoechst 33258 (NSC-322921) is listed in Table 2.
(§2) Each cancer type represents the average of six to eight different cancer cell lines.

[2] = tested on: Melanoma cancer cell lines; settings: Homo sapiens; Melanoma; average of cell lines of the cancer type; read-out: Log10 GI50 mean graph midpoint (MG_MID) (converted)
Text: as §1, §2

[3] = tested on: Prostate cancer cell lines; settings: Homo sapiens
Text: as §1, §2

Breast cancer cell lines = settings: Homo sapiens
Text: as §1, §2

[4] = tested on: Leukemia cancer cell lines; settings: Homo sapiens; Leukemia; average of cell lines of the cancer type; read-out: Log10 GI50 mean graph midpoint (MG_MID) (converted)
Text: as §1, §2

CNS cancer cell lines = settings: Homo sapiens
Text: as §1, §2

Colon cancer cell lines = settings: Homo sapiens; Colon; average of cell lines of the cancer type; read-out: Log10 GI50 mean graph midpoint (MG_MID) (converted)
Text: as §1, §2

Renal cancer cell lines = settings: Homo sapiens
Text: as §1, §2

[5] = tested on: Ovarian cancer cell lines; settings: Homo sapiens
Text: as §1, §2

[6] = read-out: Log10 LC50 mean graph midpoint (MG_MID) (converted)

## CN1CCN(c2ccc3nc(-c4ccc5nc(-c6ccc(O)cc6)[nH]c5c4)[nH]c3c2)CC1 [Hoechst 33258, reference compound]
[1]
  GI50: 115 µM
[2]
  GI50: 25.1 µM
[3]; [6]
  CC50: 1410 µM
[3]; Prostate, average of cell lines of the cancer type, read-out: Log10 GI50 mean graph midpoint (MG_MID) (converted)
  GI50: 631 µM
Breast cancer cell lines; [6]
  CC50: 1450 µM
Breast cancer cell lines; Breast, average of cell lines of the cancer type, read-out: Log10 GI50 mean graph midpoint (MG_MID) (converted)
  GI50: 21.4 µM
[4]
  GI50: 18.6 µM
CNS cancer cell lines; [6]
  CC50: 1320 µM
CNS cancer cell lines; CNS, average of cell lines of the cancer type, read-out: Log10 GI50 mean graph midpoint (MG_MID) (converted)
  GI50: 132 µM
Colon cancer cell lines
  GI50: 79.4 µM
Renal cancer cell lines; [6]
  CC50: 1260 µM
Renal cancer cell lines; Renal, average of cell lines of the cancer type, read-out: Log10 GI50 mean graph midpoint (MG_MID) (converted)
  GI50: 166 µM
[5]; [6]
  CC50: 1200 µM
[5]; Ovarian, average of cell lines of the cancer type, read-out: Log10 GI50 mean graph midpoint (MG_MID) (converted)
  GI50: 195 µM
